Measurements from US8987193B2, “Nisin derivatives and the use thereof” (University College Cork—National University of Ireland, Cork, priority 2008, dated 2015).
Ends that are not written are not given here.

System: C. sporogenes CBC5
Experiment: Deferred antagonism assay
Assay type: cell-based, Clostridium sporogenes
Set-up: key: + = Enhanced bioactivity relative to control; − = Bioactivity equal to or less than control; NA = no activity evident
Details: XX and XXX hinge mutant producers

Substance | bioactivity relative to a nisin A-producing control
NisinA GLA (ITSISLCTPGCKTGALMGCGLATATCHCSIHVSK; cysteine pairing not given here; also: lantibiotic nisin-A; UniProt P13068 24-57, looked up, variant N20G M21L K22A) [nisin A hinge variant GLA (i.e. N20G, M21L, K22A)] | −
NisinA GVK | −
NisinA HLT (ITSISLCTPGCKTGALMGCHLTTATCHCSIHVSK; cysteine pairing not given here; also: lantibiotic nisin-A; UniProt P13068 24-57, looked up, variant N20H M21L K22T) [nisin A hinge variant HLT (i.e. N20H, M21L, K22T)] | −
NisinA PAA | −
NisinA PAK | −
NisinA PAL (ITSISLCTPGCKTGALMGCPALTATCHCSIHVSK; not fully specified (bridges); also: lantibiotic nisin-A: lanthionine rings and dehydrated residues, places not given here; UniProt P13068 24-57, looked up, variant N20P M21A K22L) [nisin A hinge variant PAL (i.e. N20P, M21A, K22L)] | −
NisinA PAT (ITSISLCTPGCKTGALMGCPATTATCHCSIHVSK; not fully specified (bridges); also: lantibiotic nisin-A: lanthionine rings and dehydrated residues, places not given here; UniProt P13068 24-57, looked up, variant N20P M21A K22T) [nisin A hinge variant PAT (i.e. N20P, M21A, K22T)] | −
NisinA PIA | −
NisinA PIM | −
NisinA PLA (ITSISLCTPGCKTGALMGCPLATATCHCSIHVSK; not fully specified (bridges); also: lantibiotic nisin-A: lanthionine rings and dehydrated residues, places not given here; UniProt P13068 24-57, looked up, variant N20P M21L K22A) [nisin A hinge variant PLA (i.e. N20P, M21L, K22A)] | −
NisinA PMC | −
NisinA PML | −
NisinA PMM | −
NisinA PMQ | −
NisinA PMT | −
NisinA PNR (ITSISLCTPGCKTGALMGCPNRTATCHCSIHVSK; not fully specified (bridges); also: lantibiotic nisin-A: lanthionine rings and dehydrated residues, places not given here; UniProt P13068 24-57, looked up, variant N20P M21N K22R) [nisin A hinge variant PNR (i.e. N20P, M21N, K22R)] | −
NisinA PSL | −
NisinA PTA | −
NisinA PTL (ITSISLCTPGCKTGALMGCPTLTATCHCSIHVSK; thioether (positions not given here); not fully specified (residues 2, 5, 33, bridges); also: lantibiotic nisin A, thioether rings and dehydro residues not given here; UniProt P13068 24-57, looked up, variant N20P M21T K22L) [nisin A hinge variant PTL (i.e. N20P, M21T, K22L)] | −
NisinA QLT (ITSISLCTPGCKTGALMGCQLTTATCHCSIHVSK; not fully specified (bridges); also: lantibiotic nisin-A: lanthionine rings and dehydrated residues, places not given here; UniProt P13068 24-57, looked up, variant N20Q M21L K22T) [nisin A hinge variant QLT (i.e. N20Q, M21L, K22T)] | −
NisinA SVA (ITSISLCTPGCKTGALMGCSVATATCHCSIHVSK; not fully specified (bridges); also: lantibiotic nisin-A: lanthionine rings and dehydrated residues, places not given here; UniProt P13068 24-57, looked up, variant N20S M21V K22A) [nisin A hinge variant SVA (i.e. N20S, M21V, K22A)] | −
